Patent US20250302832A1, “PYRAZINE DERIVATIVES AND USES THEREOF” (FOGHORN THERAPEUTICS INC., priority 2022, published 2025)

Tests used:
[1] = biological target: T1, HiBit-BRM fusion protein (Homo sapiens, UniProt P51531); assay: HiBiT-BRM cell-based degradation assay (Nano-Glo HiBiT lytic detection, 24 h); settings: HeLa cell line expressing HiBiT-BRM; for DC50: read-out: BRM HiBit Degradation IC50
T1 construct: expressed in transfected cells
In short: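 Luminescence from LgBiT complementation quantified remaining HiBiT-BRM in stably expressing HeLa cells after 24 h compound exposure (top final dose 30 μM, 3-fold, 10 points, duplicate). Degradation expressed as percent relative to DMSO and a 2 μM reference degrader.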

[2] = biological target: T2, HiBit-BRG1 fusion protein (Homo sapiens, UniProt P51532); assay: HiBiT-BRG1 cell-based degradation assay (Nano-Glo HiBiT lytic detection, 24 h); settings: HeLa cell line expressing HiBit-BRG1 and LgBit; for Dmax: read-out: BRG1 HiBit Degradation Maximum (%)
T2 construct: expressed in transfected cells
In short: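 Luminescence from HiBiT/LgBiT complementation after lytic detection reagent was read following 24 h compound exposure of HeLa cells stably carrying HiBiT-BRG1 plus LgBiT (5000 cells/well). Signal scaled to % degradation using DMSO-treated cells as 0% and cells given 2 μM known BRM/BRG1 degrader as 100%.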

T1 sequence (P51531 whole entry, the tested form may be a part): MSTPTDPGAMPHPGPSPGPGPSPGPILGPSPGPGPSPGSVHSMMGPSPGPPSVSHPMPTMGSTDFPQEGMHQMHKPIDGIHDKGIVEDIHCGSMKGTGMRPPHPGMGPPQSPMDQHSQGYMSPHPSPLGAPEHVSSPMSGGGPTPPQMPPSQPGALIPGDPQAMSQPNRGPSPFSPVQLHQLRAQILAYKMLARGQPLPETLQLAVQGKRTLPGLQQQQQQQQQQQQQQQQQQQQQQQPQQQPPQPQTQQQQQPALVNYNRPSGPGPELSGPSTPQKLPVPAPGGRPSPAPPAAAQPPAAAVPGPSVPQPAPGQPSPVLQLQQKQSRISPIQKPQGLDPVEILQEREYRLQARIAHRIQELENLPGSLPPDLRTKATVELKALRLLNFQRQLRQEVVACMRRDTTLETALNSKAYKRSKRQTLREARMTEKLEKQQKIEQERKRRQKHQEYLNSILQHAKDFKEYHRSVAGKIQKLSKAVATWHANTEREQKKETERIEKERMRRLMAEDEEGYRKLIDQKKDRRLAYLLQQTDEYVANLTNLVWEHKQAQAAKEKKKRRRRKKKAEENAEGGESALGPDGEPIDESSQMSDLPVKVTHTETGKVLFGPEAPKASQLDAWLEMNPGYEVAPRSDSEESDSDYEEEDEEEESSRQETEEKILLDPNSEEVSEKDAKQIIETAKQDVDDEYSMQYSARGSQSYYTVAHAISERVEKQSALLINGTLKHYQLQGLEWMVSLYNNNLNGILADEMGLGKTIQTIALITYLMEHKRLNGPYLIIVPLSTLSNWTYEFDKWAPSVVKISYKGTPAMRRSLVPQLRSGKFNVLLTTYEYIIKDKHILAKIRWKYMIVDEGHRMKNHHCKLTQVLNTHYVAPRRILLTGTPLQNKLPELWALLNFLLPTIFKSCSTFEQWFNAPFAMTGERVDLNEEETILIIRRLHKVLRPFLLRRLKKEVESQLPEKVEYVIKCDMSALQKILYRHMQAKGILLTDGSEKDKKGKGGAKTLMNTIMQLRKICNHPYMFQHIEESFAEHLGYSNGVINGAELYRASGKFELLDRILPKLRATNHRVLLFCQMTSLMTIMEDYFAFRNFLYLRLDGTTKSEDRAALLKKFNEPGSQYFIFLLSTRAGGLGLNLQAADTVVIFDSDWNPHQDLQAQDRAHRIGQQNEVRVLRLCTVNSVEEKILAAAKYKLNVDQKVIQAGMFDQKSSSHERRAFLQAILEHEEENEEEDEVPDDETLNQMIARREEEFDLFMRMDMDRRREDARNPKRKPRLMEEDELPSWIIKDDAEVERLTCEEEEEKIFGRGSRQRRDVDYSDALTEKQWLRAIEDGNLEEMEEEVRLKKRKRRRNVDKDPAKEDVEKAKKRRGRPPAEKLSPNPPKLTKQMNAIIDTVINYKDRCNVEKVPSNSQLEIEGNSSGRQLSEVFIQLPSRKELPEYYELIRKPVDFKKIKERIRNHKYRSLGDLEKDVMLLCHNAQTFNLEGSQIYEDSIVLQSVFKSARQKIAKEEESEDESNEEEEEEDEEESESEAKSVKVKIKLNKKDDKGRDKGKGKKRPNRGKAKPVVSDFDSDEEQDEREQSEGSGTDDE
T2 sequence (P51532 whole entry, the tested form may be a part): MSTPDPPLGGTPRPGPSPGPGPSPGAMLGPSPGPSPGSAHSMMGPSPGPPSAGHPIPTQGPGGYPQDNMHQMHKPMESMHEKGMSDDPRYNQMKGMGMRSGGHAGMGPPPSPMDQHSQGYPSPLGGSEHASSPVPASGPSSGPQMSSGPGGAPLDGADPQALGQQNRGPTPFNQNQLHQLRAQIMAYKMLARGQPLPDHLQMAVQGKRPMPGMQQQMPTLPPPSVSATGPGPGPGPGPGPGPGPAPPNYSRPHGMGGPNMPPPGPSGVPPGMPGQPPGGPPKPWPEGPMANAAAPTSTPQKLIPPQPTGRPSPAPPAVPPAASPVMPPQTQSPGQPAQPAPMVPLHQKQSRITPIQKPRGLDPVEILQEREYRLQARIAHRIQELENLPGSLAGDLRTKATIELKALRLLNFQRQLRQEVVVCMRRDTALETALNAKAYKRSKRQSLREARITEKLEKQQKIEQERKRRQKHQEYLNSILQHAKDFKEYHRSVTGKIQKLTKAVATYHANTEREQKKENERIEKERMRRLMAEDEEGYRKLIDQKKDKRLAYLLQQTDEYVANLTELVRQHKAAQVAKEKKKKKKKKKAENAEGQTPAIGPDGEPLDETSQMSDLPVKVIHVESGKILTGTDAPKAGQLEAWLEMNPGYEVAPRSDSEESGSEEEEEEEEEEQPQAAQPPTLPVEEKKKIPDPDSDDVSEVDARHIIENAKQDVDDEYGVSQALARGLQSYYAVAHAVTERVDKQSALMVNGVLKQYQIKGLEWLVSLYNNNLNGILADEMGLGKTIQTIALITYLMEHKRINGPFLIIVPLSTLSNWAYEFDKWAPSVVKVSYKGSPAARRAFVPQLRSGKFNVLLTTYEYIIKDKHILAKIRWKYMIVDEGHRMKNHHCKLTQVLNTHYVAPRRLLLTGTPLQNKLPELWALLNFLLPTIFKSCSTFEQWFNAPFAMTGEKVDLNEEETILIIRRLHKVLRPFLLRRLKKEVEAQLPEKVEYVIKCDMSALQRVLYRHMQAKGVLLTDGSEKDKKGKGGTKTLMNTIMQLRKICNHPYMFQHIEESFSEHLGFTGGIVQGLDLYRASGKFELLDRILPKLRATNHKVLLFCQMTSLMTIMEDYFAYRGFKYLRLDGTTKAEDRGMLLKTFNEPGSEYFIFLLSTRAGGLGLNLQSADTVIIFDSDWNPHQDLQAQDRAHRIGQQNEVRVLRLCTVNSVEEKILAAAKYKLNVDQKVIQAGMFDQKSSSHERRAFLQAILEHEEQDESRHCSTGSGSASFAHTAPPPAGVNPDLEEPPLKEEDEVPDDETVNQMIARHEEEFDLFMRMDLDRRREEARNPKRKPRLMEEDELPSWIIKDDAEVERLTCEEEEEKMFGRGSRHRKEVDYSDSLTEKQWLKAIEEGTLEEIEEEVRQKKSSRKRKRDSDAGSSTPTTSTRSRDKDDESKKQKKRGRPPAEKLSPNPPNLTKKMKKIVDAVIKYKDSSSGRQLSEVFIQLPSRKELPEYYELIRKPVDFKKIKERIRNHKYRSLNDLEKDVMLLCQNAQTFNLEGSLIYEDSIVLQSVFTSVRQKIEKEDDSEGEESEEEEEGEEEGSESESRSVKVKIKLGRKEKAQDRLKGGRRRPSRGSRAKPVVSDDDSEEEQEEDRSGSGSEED

SMILES	DC50 [1]	Dmax [2]	DC50 ([2]; read-out: BRMG1 HiBit Degradation IC50)	BRM HiBit Degradation Maximum (%) [1]
Cc1ncsc1-c1ccc([C@H](C)NC(=O)[C@@H]2C[C@@H](O)CN2C(=O)[C@@H](c2cc(-c3cnc(N4CC[C@H](c5cc6nnc(-c7ccccc7O)cc6n5C5CC5)C4)nc3)no2)C(C)C)cc1 [Compound 34, (2S,4R)-1-((R)-2-(3-(2-((S)-3-(5-cyclopropyl-3-(2-hydroxyphenyl)-5H-pyrrolo[3,2-c]pyridazin-6-yl)pyrrolidin-1-yl)pyrimidin-5-yl)isoxazol-5-yl)-3-methylbutanoyl)-4-hydroxy-N—((S)-1-(4-(4-methylthiazol-5-yl)phenyl)ethyl)pyrrolidine-2-carboxamide]	< 10 nM	< 50%	–	A (“A” indicates maximum degradation ≥75%)
Cc1ncsc1-c1ccc([C@H](C)NC(=O)[C@@H]2C[C@@H](O)CN2C(=O)[C@@H](c2cc(OCCN3CC(c4cc5nnc(-c6ccccc6O)cc5n4C4COC4)C3)no2)C(C)C)cc1 [Compound 16, (2S,4R)-4-hydroxy-1-((R)-2-(3-(2-(3-(3-(2-hydroxyphenyl)-5-(oxetan-3-yl)-5H-pyrrolo[3,2-c]pyridazin-6-yl)azetidin-1-yl)ethoxy)isoxazol-5-yl)-3-methylbutanoyl)-N—((S)-1-(4-(4-methylthiazol-5-yl)phenyl)ethyl)pyrrolidine-2-carboxamide]	–	< 50%	–	C (“C” indicates maximum degradation <50%)
Cc1ncsc1-c1ccc([C@H](C)NC(=O)[C@@H]2C[C@@H](O)CN2C(=O)[C@@H](c2cc(-c3cnc(N4CCC(c5cc6nnc(-c7ccccc7O)cc6n5C5CCC5)CC4)nc3)no2)C(C)C)cc1 [Compound 46]	–	< 50%	–	C (“C” indicates maximum degradation <50%)

Second part, led by results:

DC50 [1]	Dmax [2]	DC50 ([2]; read-out: BRMG1 HiBit Degradation IC50)	SMILES	BRM HiBit Degradation Maximum (%) [1]
< 10 nM	> 50%	> 10 nM	Cc1ncsc1-c1ccc([C@H](C)NC(=O)[C@@H]2C[C@@H](O)CN2C(=O)[C@@H](c2cc(N3C[C@@H]4C(c5cc6nnc(-c7ccccc7O)cc6n5C5CC5)[C@H]4C3)no2)C(C)C)cc1 (stereo partly drawn) [Compound 101, (2S,4R)-1-((R)-2-(3-((1S,5S)-6-(5-cyclopropyl-3-(2-hydroxyphenyl)-5H-pyrrolo[3,2-c]pyridazin-6-yl)-3-azabicyclo[3.1.0]hexan-3-yl)isoxazol-5-yl)-3-methylbutanoyl)-4-hydroxy-N-((S)-1-(4-(4-methylthiazol-5-yl)phenyl)ethyl)pyrrolidine-2-carboxamide]	A (“A” indicates maximum degradation ≥75%)
< 10 nM	< 50%	–	Cc1ncsc1-c1ccc([C@H](C)NC(=O)[C@@H]2C[C@@H](O)CN2C(=O)[C@@H](c2cc(-c3cnc(N4CC[C@H](c5cc6nnc(-c7cccc(F)c7O)cc6n5C5CC5)C4)nc3)no2)C(C)C)cc1 [Compound 109, (2S,4R)-1-((R)-2-(3-(2-((S)-3-(5-cyclopropyl-3-(3-fluoro-2-hydroxyphenyl)-5H-pyrrolo[3,2-c]pyridazin-6-yl)pyrrolidin-1-yl)pyrimidin-5-yl)isoxazol-5-yl)-3-methylbutanoyl)-4-hydroxy-N-((S)-1-(4-(4-methylthiazol-5-yl)phenyl)ethyl)pyrrolidine-2-carboxamide]	A (“A” indicates maximum degradation ≥75%)
< 10 nM	< 50%	–	Cc1ncsc1-c1ccc([C@H](C)NC(=O)[C@@H]2C[C@@H](O)CN2C(=O)[C@@H](c2cc(N3CCC4(CC3)CC(c3cc5nnc(-c6ccccc6O)cc5n3CC3CC3)C4)no2)C(C)C)cc1 [Compound 86, (2S,4R)-1-((R)-2-(3-(2-(5-(cyclopropylmethyl)-3-(2-hydroxyphenyl)-5H-pyrrolo[3,2-c]pyridazin-6-yl)-7-azaspiro[3.5]nonan-7-yl)isoxazol-5-yl)-3-methylbutanoyl)-4-hydroxy-N-((S)-1-(4-(4-methylthiazol-5-yl)phenyl)ethyl)pyrrolidine-2-carboxamide]	A (“A” indicates maximum degradation ≥75%)
> 10 nM	< 50%	–	Cc1ncsc1-c1ccc([C@H](C)NC(=O)[C@@H]2C[C@@H](O)CN2C(=O)[C@@H](c2cc(N3CCC[C@@H](c4cc5nnc(-c6ccccc6O)cc5n4C4CC4)C3)no2)C(C)C)cc1 [Compound 100, (2S,4R)-1-((R)-2-(3-((R)-3-(5-cyclopropyl-3-(2-hydroxyphenyl)-5H-pyrrolo[3,2-c]pyridazin-6-yl)piperidin-1-yl)isoxazol-5-yl)-3-methylbutanoyl)-4-hydroxy-N-((S)-1-(4-(4-methylthiazol-5-yl)phenyl)ethyl)pyrrolidine-2-carboxamide]	A (“A” indicates maximum degradation ≥75%)
